Measurements published in patent US6177474A, “Polyhydroxyphenol derivatives and preventive and therapeutic agents for bone and cartilage diseases containing the same” (Hoechst Marion Roussel, priority 1996, dated 2001).

Tested on: bone cells containing osteoclast cells
Experiment: Pit formation assay: inhibition of osteolysis (absorption pits on ivory slices)
Assay type: cell-based, ICR mice
Conditions: for inhibition at 10 µM: Mus musculus, Osteoclast, read-out: Ratio of inhibition (%)
Procedure: ICR mice 11-12 days old (purchased from Charles River Japan) were euthanized by anesthesia with ether and immediately immersed in 70% ethanol for disinfection. By the use of ophthalmologist scissors and pincers sterilized in advance with ethanol, femur and tibia were excised from the sacrificed mice and chopped into small pieces in an α-MEM culture medium (purchased from Flow Laboratories Corp.). containing 5% FBS (purchased from Irvine Scientific Corp.), 100 U/ml penicillin and 100 μg/ml streptomycin. The supernatant formed consequently was recovered by pipeting, cleaned with the culture broth, and suspended in a 5% FBS α-MEM culture broth to obtain bone cells containing osteoclast cells. The supernatant of a bone cell-floating liquid formed after 3 minutes' standing of the bone cells at rest was recovered and passed through a mesh (cell strainer, 70 μm, purchased from Falcon Corp.). The filtrate was adjusted to a cell concentration of 1×10^7 /ml and used for the pit formation assay.
An ivory piece was cut into slices, 150 μm in thickness, by the use of a precision low-speed cutting machine (purchased from Buehler Corp.). Cylindrical holes, 6 mm in diameter, were perforated in the slices by the use of a one-hole punch. The ivory slices were immersed in 70% ethanol and subjected therein to an ultrasonic cleaning treatment twice each for five minutes and washed three times with a sterilized PBS and twice with the culture medium. The ivory slices were set in place on a 96-hole culture plate (purchased from Falcon Corp.). The perforated ivory slices on the culture plate, with a culture broth containing a given compound of the present invention prepared in a concentration of 2×10^-5 M added in a fixed volume of 100 μl (final medicine concentration 1×10^-5 M) to each of the holes and a culture broth containing prepared bone cells in a concentration of 1×10^7 /ml placed in each of the holes, were cultured for three days in a 10% CO2 incubator at 37° C. After the culture, the ivory slices were placed in an aqueous 2 N sodium hydroxide and the cells on the slices were removed by the use of a rubber spatula. The ivory slices were washed with water and methanol. The absorption pits formed in the ivory slices were dyed with Coomassie Brilliant Blue and were counted under a microscope. Though the numbers of absorption pits were naturally found to disperse among test lots, depending on the ratios of varying specie s of cells in the bone cell suspensions and the lots of animals used, satisfactorily uniform test results were found in one and the same test lot. The ratio of inhibition of osteolysis was calculated on the 100% scale, in which 0% stands for the number of absorption pits found in the culture broth in the presence of rPTH (1×10^-8 M) and in the absence of a medicine and 100% for total absence of absorption pit.
The test described above was performed in a total of ten runs, Tests 1-10.
In the columns titled "Added medicine No." found in Table 2 and Table 3, the symbol (-) denotes a control involving no addition of medicine and the numerical No. denotes the No. of the compound mentioned above.

[1] = 72 h, compound 10^-5 M, 0% = pits with rPTH (1×10^-8 M) without medicine, 100% = no absorption pit

Molecule | No. of absorption pits (Mean ± SD) (72 h, 10 µM) | inhibition at 10 µM [1] [%] | No. of absorption pits (Mean ± SD) (compound 10^-5 M, 3 days culture at 37° C., 10% CO2, control per test run given as (-)) | Ratio of inhibition (%) (compound 10^-5 M, 0% = pits with rPTH (1×10^-8 M) without medicine, 100% = no absorption pit, 4320 min, 10 µM)
CC(C)CC(=O)c1ccc(O)cc1O [Compound 52, (2,4-dihydroxyphenyl)(2-methylpropyl) ketone] | 94.3 ± 13.8 | 44.9 |  | 
CC(C)CCCC(C)CC(=O)c1c(O)cc(O)cc1O (stereo not shown) [Compound 6, (2,6-dimethylheptyl) (2,4,6-trihydroxyphenyl) ketone] | 63.4 ± 12.4 | 61.4 |  | 
(2,4,5-trihydroxyphenyl) (2-methylpropyl) ketonemono(3-methyl-2-butenyl) ether [Compound 28] |  |  | 61.3 ± 5.5 | 69.6
CC(C)=CCc1c(O)c(CC=C(C)C)c(O)c(C(=O)Cc2ccccc2)c1O [Compound 39, {3,5-bis(3-methyl-2-butenyl)-2,4,6-trihydroxyphenyl} (phenylmethyl) ketone] | 49.2 ± 9.4 | 72.6 |  | 
CC(C)CC(=O)c1c(O)c(Cc2ccccc2)c(O)c(Cc2ccccc2)c1O [Compound 34, {3,5-bisbenzyl-2,4,6-trihydroxyphenyl} (2-methylpropyl) ketone] | 8.2 ± 1.9 | 95.9 |  | 
CC(C)=CCC1=C(O)C(O)(CC=C(C)C)C(=O)C(C(=O)c2ccccc2)=C1O (stereo not shown) [Compound 32, 2,4-bis(3-methyl-2-butenyl)-6-benzoyl-2,3,5-trihydroxycyclohexa-3,5-dienone] | 33.9 ± 4.1 | 65.7 |  | 
CC(C)=CCc1cc(C(=O)CC(C)C)c(O)cc1O [Compound 55, {2,4-dihydroxy-5-(3-methyl-2-butenyl)phenyl} (2-methylpropyl)ketone] | 15.8 ± 3.3 | 90.8 |  | 
CC(C)CCc1c(O)c(CCC(C)C)c(O)c(C(=O)CC(C)C)c1O [Compound 37, {3,5-bis(3-methylbutyl)-2,4,6-trihydroxyphenyl} (2-methylpropyl) ketone] | 14.4 ± 4.9 | 91.1 |  | 
CC(C)=CCC1(CC=C(C)C)C(=O)C(C(=O)C(C)C)=C(O)C=C1O [Compound 13, 2,2-bis(3-methyl-2-butenyl)-3,5-dihydroxy-6-(2-methyl-1-oxopropyl)cyclohexa-3,5-dienone] | 16.8 ± 3.6 | 79 |  | 
CC(C)=CCC1(CC=C(C)C)C(=O)C(C(=O)Cc2ccccc2)=C(O)C=C1O [Compound 41, 3,5-dihydroxy-6-(phenylacetyl)-2,2-bis(3-methyl-2-butenyl)cyclohexa-3,5-dienone] | 3.2 ± 0.7 | 97.4 |  | 
CC(C)=CCOc1ccc(C(=O)CC(C)C)c(O)c1 [Compound 53, {2-hydroxy-4-(3-methyl-2-butenyloxy)phenyl} (2-methylpropyl) ketone] | 55.1 ± 11.1 | 67.8 |  | 
CC(C)=CCCC(C)=CCC1(CC=C(C)CCC=C(C)C)C(=O)C(C(=O)CC(C)C)=C(O)C=C1O (stereo not shown) [Compound 21, 2,2-bis(3,7-dimethyl-2,6-octadienyl)-3,5-dihydroxy-6-(3-methyl-1-oxobutyl)cyclohexa-3,5-dienone] | 3.5 ± 1.4 | 98.1 |  | 
CC(C)=CCC1(CC=C(C)C)C(=O)C(C(=O)CC(C)CCCC(C)C)=C(O)C=C1O (stereo not shown) [Compound 24, 2,2-bis(3-methyl-2-butenyl)-3,5-dihydroxy-6-(3,7-dimethyl-1-oxooctyl)cyclohexa-3,5-dienone] | 39.3 ± 13.9 | 75.8 |  | 
CC(C)=CCC1=C(O)C(O)(CC=C(C)C)C(=O)C(C(=O)C(C)C)=C1O (stereo not shown) [Compound 29, 2,4-bis(3-methyl-2-butenyl)-6-(2-methyl-1-oxopropyl)-2,3,5-trihydroxycyclohexa-3,5-dienone] | 20.3 ± 2.1 | 79.5 |  | 
